Residues, ends and D or L forms follow the SMILES beside them.
What was measured:
Format in all cases: cell-based
[1] = tested on: T47D; test: In vitro cytotoxicity assay (CCK8 cell viability), endogenous cell line T47D; conditions: Homo sapiens, 72 h
Procedure: (§1) Cells were seeded in Nunclon Delta Surface 96 well plates at 1000 (HEK293 and HEK293/PRLR) or 6000 (T47D) cells per well, and cells were grown overnight in complete growth media. For cell viability curves, serially diluted conjugates or free representative payloads were added to the cells at final concentrations ranging from 100 nM to 5 pM and incubated for 3 days. To measure viability, cells were incubated with CCK8 (Dojindo) for the final 1-3 hours and the absorbance at 450 nm (OD450) was determined on a Victor X4 (PerkinElmer). Background OD450 levels (CCK8) from digitonin ([…]) treated cells were subtracted from all wells and viability is expressed as a percentage of the untreated controls. IC50 values were determined from a four-parameter logistic equation over a 10-point response curve (GraphPad Prism). Maytansinoid conjugate curves and IC50 values are corrected for payload equivalents based on the UV DAR value. For the auristatin (MMAF) conjugate, the IC50 values are assigned a DAR of 1 (i.e., equal to antibody concentration) since a good estimate cannot be obtained by UV or mass spectrometry.

[2] = tested on: HEK293; test: In vitro cytotoxicity assay (CCK8 cell viability), native HEK293 cells (no target expressed); conditions: Homo sapiens, HEK293, 72 h
Procedure: as §1

[3] = tested on: HEK293/hPRLR; test: In vitro cytotoxicity assay (CCK8 cell viability), engineered HEK293/hPRLR cells; conditions: Homo sapiens, HEK293, 72 h
Procedure: as §1

Measured: IC50

CC[C@H](C)[C@@H]([C@@H](CC(=O)N1CCC[C@H]1[C@H](OC)[C@@H](C)C(=O)N[C@@H](Cc1ccccc1)C(=O)O)OC)N(C)C(=O)[C@@H](NC(=O)[C@@H](NC)C(C)C)C(C)C [compound 27, Monomethyl Auristatin F] (HELM PEPTIDE1{[meV].V.[CC[C@H](C)[C@@H]([C@@H](CC(=O)[*:2])OC)N(C)[*:1]].[CO[C@H]([C@@H](C)C(=O)[*:2])[C@@H]1CCCN1[*:1]].F}$$$$V2.0)
> 100 nM: all assays above

Reference: US10752690B2, “Biologically active molecule conjugates, reagents and methods of manufacture, and therapeutic uses” (REGENERON PHARMACEUTICALS, INC., priority 2014, dated 2020)
